Data: paper PMC9426601 (mBio, 2022)
“And” between values parts separate entries of the source, which are not always exact repeats. Equal values may be shown once. Read-outs that look alike come from different tables or passages of the source.

What was measured:
[1] = tested on: A(H1N1pdm09)-WT; experiment: yield reduction assay (YRA) in MDCK-SIAT cells; format: cell-based, influenza A(H1N1pdm09) virus; conditions: A(H1N1pdm09) 100% WT, mean ± SD
Experimental: (§1) To perform the yield reduction assay, MDCK-SIAT cells were seeded into a 96-well plate as described above. Cell monolayers were washed with PBS and infected with 100 virus particles (calculated based on virus titer determined by TCID50) for 90 min. […] The plates were incubated for 24 h at 35°C, and the supernatant was collected and quantified to determine the infectious viral titer by using a TCID50 assay.

[2] = tested on: A(H1N1pdm09) 100% WT; parameters: species or system ferrets (Mustela putorius furo); AUC (area under the curve of nasal wash viral titer): unit not given beside the values; conditions: in vivo
[3] = tested on: A(H3N2) 100% WT; parameters: species or system ferrets (Mustela putorius furo); conditions: in vivo
[4] = target: NA activity of A(H3N2)-WT (Influenza A virus, UniProt P06818); format: biochemical
[5] = tested on: A(H3N2)-WT; experiment: yield reduction assay (YRA) in MDCK-SIAT cells; format: cell-based, influenza A(H3N2) virus; conditions: A(H3N2) 100% WT, mean ± SD
Experimental: as §1

[6] = tested on: A(H3N2)-WT; experiment: microbe, parasite or virus in culture; format: cell-based; conditions: Influenza A virus, H3N2, read-out: Baloxavir EC50 (nM) FRA
[7] = tested on: A(H1N1pdm09)-WT; experiment: microbe, parasite or virus in culture; format: cell-based, influenza A(H1N1pdm09) virus; conditions: Influenza A virus, read-out: Baloxavir EC50 (nM) FRA
[8] = target: NA activity of A(H1N1pdm09)-WT (Influenza A virus, UniProt C7FH46); format: biochemical; conditions: read-out: IC50 (nM), neuraminidase inhibitor
[9] = read-out: Oseltamivir IC50 (nM) YRA
[10] = Influenza A virus, read-out: Baloxavir EC50 (nM) YRA

CCOC(=O)C1=C[C@@H](OC(CC)CC)[C@H](NC(C)=O)[C@@H](N)C1 [Oseltamivir, oseltamivir]
IC50 [1, 9]: […] | AUC (area under the curve of nasal wash viral titer) [2]: 29.8 ± 2.2 | Duration of viral shedding [2]: […] | reduction in mean viral titer 1 day following antiviral treatment [2]: no reduction | Duration of viral shedding [3]: […] | IC50 ([4]; read-out: Oseltamivir IC50 (nM) NIA): 0.22 ± 0.2 nM | IC50 [5, 9]: […]

O=C1c2c(O)c(=O)ccn2N([C@@H]2c3ccccc3SCc3c2ccc(F)c3F)[C@@H]2COCCN12 [Baloxavir, baloxavir acid]
EC50 [1, 10]: 0.3 ± 0.02 nM | Duration of viral shedding [2]: 4 ± 0.8 days | reduction in AUC relative to placebo [2]: 29% | reduction in mean viral titer 1 day following antiviral treatment [2]: 1,000 fold | reduction of duration of viral shedding vs placebo [2]: 2.3 days | Duration of viral shedding [3]: 4.3 days and 4.3 ± 0.9 days | duration of viral shedding shorter than placebo [3]: 1.7 days | reduction in AUC relative to placebo [3]: 28% | EC50 [6]: 0.6 ± 0.2 nM | EC50 [7]: 1.2 ± 0.2 nM | EC50 [5, 10]: 0.4 ± 0.1 nM

CCC(CC)[C@H](NC(C)=O)[C@@H]1[C@H](O)[C@@H](C(=O)O)C[C@H]1N=C(N)N [Peramivir]
IC50 ([4]; read-out: IC50 (nM), neuraminidase inhibitor): 0.19 ± 0.01 nM | IC50 [8]: 0.15 ± 0.03 nM
